The species entered for data set [1] is Homo sapiens. The data set is described as follows: Binding affinity to human telomeric G-quadruplex TelQ22-DA DNA assessed as change in melting temperature by FRET assay.
The species named for data set [2] is Homo sapiens. The data set can be described thus: Binding affinity to human telomeric G-quadruplex TelQ22-DA DNA at 65 degC by FRET melting assay.
The species named for data set [3] is Homo sapiens. The data set is described as follows: Binding affinity to human telomeric G-quadruplex TelQ24 (5'-d(TTAGGG)4)-3') DNA at 25 degC by fluorescent intercalator displacement assay.
The species named for data set [4] is Homo sapiens. The data set is described as follows: Binding affinity to human telomeric G-quadruplex TelQ22-DA DNA assessed as interaction with compound at 25 degC by isothermal titration calorimetry. A general note: Isothermal titration calorimetry measures the heat released or taken up as one component is titrated into another.
Data set [5] has as its target T1, Telomerase reverse transcriptase (Homo sapiens, UniProt O14746). The data set can be described thus: Inhibition of human telomerase transfected in human HEK293T cells assessed as DNA extension using 5'-d(AATCCGTCGAGCAGAGTT)-3' substrate. The data set is classed as cell-based. The following applies: hek-293t.
The target in data set [6] is T1, Telomerase reverse transcriptase. The data set can be described thus: Inhibition of human telomerase transfected in human HEK293T cells assessed as DNA extension using 5'-d(AATCCGTCGAGCAGAGTT)-3' substrate by Real-time quantitative telomeric repeat amplification protocol. The data set is classed as cell-based. Particulars: hek-293t.
Data set [7] has as its system L1210. The data set can be described thus: Cytotoxicity against mouse L1210 cells after 48 hrs by trypan blue assay. It is filed as functional, cell-based. Particulars: L1210, 48 h.
The next data set deals with CCRF-CEM. The data set is described as follows: Cytotoxicity against human CEM cells after 48 hrs by trypan blue assay. It is filed as functional, cell-based.
The target of data set [8] is T2, DNA topoisomerase 1 (Homo sapiens) (UniProt P11387).
T2 sequence (whole entry): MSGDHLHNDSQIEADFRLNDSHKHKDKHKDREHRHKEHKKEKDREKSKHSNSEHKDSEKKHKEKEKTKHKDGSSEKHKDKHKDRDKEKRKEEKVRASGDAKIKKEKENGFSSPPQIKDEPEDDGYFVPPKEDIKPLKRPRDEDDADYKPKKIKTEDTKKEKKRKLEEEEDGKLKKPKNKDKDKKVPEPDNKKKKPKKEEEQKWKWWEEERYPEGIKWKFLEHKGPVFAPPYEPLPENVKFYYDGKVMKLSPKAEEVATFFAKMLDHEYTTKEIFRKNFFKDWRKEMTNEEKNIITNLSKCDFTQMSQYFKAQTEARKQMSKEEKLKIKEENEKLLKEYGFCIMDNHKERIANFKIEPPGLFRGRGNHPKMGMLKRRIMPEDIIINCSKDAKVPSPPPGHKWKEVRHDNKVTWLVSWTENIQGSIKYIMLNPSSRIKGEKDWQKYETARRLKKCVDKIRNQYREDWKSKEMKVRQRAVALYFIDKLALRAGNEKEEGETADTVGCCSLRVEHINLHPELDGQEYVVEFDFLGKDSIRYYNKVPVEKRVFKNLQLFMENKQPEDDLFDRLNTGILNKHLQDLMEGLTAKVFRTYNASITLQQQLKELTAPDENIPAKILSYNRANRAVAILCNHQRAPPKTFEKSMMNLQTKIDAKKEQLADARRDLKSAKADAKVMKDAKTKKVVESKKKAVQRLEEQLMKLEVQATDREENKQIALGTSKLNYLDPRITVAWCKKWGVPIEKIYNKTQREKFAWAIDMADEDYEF
The data set can be described thus: Inhibition of topoisomerase 1 (unknown origin)-mediated relaxation of supercoiled pBR322 at 1 uM after 30 mins by agarose gel electrophoresis.

For data set [9], the system named is L1210. The data set is described as follows: Drug uptake in mouse L1210 cells at 1 uM after 15 mins. The data set is classed as ADME, cell-based. The following applies: l1210, 0.25 h.
The subject of data set [10] is L1210. The data set can be described thus: Drug uptake in mouse L1210 cells at 1 uM after 3 hrs. The data set is classed as ADME, cell-based. Particulars: l1210, 3 h.

The source of these data is ChEMBL document CHEMBL3351222, “Novel multi-targeting anthra[2,3-b]thiophene-5,10-diones with guanidine-containing side chains: interaction with telomeric G-quadruplex, inhibition of telomerase and topoisomerase I and cytotoxic properties” (Eur J Med Chem, 2014).

What is called ΔTm is the change in melting temperature against a reference sample. Broadly, the IC50 is the midpoint of a concentration-inhibition curve.

Calls of active or inactive are those of the source. The calls are words filed in the database; no cut-off is given here.

T1 sequence (O14746 whole entry): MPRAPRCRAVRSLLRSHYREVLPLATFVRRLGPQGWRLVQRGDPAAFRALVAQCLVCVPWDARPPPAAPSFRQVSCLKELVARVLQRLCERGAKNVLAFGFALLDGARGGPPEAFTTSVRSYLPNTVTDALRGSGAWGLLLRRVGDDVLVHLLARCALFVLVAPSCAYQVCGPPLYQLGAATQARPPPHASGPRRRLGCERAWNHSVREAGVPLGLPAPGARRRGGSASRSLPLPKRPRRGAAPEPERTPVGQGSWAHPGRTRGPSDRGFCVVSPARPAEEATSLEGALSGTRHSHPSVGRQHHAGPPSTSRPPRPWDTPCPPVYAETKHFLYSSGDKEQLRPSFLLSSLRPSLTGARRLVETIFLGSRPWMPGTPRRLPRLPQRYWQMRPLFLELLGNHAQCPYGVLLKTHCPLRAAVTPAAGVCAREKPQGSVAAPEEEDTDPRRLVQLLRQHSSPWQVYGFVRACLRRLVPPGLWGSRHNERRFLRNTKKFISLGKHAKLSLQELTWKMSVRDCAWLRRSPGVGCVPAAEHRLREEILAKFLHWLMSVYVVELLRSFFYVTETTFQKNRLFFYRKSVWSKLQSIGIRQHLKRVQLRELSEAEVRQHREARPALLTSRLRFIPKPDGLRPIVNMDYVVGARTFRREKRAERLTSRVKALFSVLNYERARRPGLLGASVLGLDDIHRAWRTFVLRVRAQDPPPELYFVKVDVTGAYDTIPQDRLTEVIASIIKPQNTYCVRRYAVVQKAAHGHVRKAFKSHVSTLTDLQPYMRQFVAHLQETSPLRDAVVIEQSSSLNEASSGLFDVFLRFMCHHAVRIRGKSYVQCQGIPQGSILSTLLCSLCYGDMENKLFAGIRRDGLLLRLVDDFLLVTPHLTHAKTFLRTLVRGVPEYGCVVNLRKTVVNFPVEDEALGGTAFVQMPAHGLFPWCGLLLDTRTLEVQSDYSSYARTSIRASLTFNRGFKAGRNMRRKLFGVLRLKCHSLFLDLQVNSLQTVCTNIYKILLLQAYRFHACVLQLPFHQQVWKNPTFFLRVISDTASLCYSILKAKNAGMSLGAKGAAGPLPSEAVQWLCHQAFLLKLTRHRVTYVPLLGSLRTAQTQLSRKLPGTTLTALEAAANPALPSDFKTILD

Consider `N=C(N)NCCNc1c2c(c(N)c3sccc13)C(=O)c1ccccc1C2=O`, for which the ΔTm in the data set filed under Homo sapiens [1] came out at 1 °C. Also, the Kb in the data set filed under Homo sapiens [2] is 0.2 ×10⁶ /M; in the data set listed under Homo sapiens [3], 1.6 ×10⁶ /M; in the data set listed under Homo sapiens [4], 0.6 ×10⁶ /M. Moreover, the IC50 in [5] was 2 µM; in data set [6] it was 0.9 µM; with L1210 [7] it was 19 µM; in the data set on CCRF-CEM, 16 µM.

`Cl.N=C(N)NCCNc1c2c(c(NCCCN)c3sccc13)C(=O)c1ccccc1C2=O`: the ΔTm in the data set listed under Homo sapiens [1] came out at 10 °C. Moreover, the Kb in the data set filed under Homo sapiens [2] amounted to 5 ×10⁶ /M; in the data set filed under Homo sapiens [3], 9 ×10⁶ /M; in the data set filed under Homo sapiens [4] it was 3.7 ×10⁶ /M. In addition, the IC50 in data set [5] was determined as 0.7 µM; in [6], 0.07 µM; in the data set with L1210 [7] it was 10 µM; in the data set on CCRF-CEM it was 10 µM. For the same compound, the inhibition entry in data set [8] was “Active”. Also, the Drug uptake entry in the data set with L1210 [9] and in the data set with L1210 [10] was “Active” each time.

As to `Cl.N=C(N)NCCNc1c2c(c(NCCNC(=N)N)c3sccc13)C(=O)c1ccccc1C2=O`, the ΔTm in the data set filed under Homo sapiens [1] came out at 12 °C. The Kb in the data set filed under Homo sapiens [2] was 7 ×10⁶ /M; in the data set filed under Homo sapiens [3], 8 ×10⁶ /M. The IC50 in [5] turned out to be 0.7 µM; in data set [6], 0.08 µM; with L1210 [7], 20 µM; with CCRF-CEM, 11 µM. In addition, in [8], the inhibition result is “Active”. The Drug uptake result in the data set with L1210 [9] and with L1210 [10] was “Active” in each case.

Regarding `N=C(N)NCCNc1c2c(c(NCCN)c3sccc13)C(=O)c1ccccc1C2=O`, in the data set listed under Homo sapiens [1], the ΔTm came out at 5 °C. Moreover, the Kb in the data set filed under Homo sapiens [2] worked out at 1.5 ×10⁶ /M; in the data set filed under Homo sapiens [3] it was 12 ×10⁶ /M; in the data set filed under Homo sapiens [4] it was 11 ×10⁶ /M. Besides, the IC50 is 0.8 µM in [5], 0.1 µM in data set [6], 16 µM with L1210 [7] and 7 µM in the data set with CCRF-CEM. For the same compound, the inhibition result in data set [8] is “Active”.

Consider `CC(=N)NCCNc1c2c(c(NCCNC(C)=N)c3sccc13)C(=O)c1ccccc1C2=O`, for which the ΔTm in the data set filed under Homo sapiens [1] came out at 7 °C. The Kb came to 2.4 ×10⁶ /M in the data set listed under Homo sapiens [2], 8 ×10⁶ /M in the data set listed under Homo sapiens [3] and 1.1 ×10⁶ /M in the data set listed under Homo sapiens [4]. For the same compound, the IC50 in data set [5] is 0.47 µM; in data set [6] it was 0.3 µM; with L1210 [7], 36 µM; with CCRF-CEM it was 39 µM. Moreover, the inhibition entry in [8] was “Active”.

Consider `N=C(N)NCCNc1c2c(c(N)c3ccsc13)C(=O)c1ccccc1C2=O`, for which the ΔTm in the data set filed under Homo sapiens [1] stood at 1 °C. For the same compound, the Kb in the data set listed under Homo sapiens [2] was 0.1 ×10⁶ /M; in the data set filed under Homo sapiens [3], 2.1 ×10⁶ /M; in the data set listed under Homo sapiens [4], 0.5 ×10⁶ /M. Besides, the IC50 in [5] is 3 µM; in data set [6] it was 0.5 µM; in the data set with L1210 [7], 22 µM; in the data set with CCRF-CEM, 21 µM. Moreover, in [8], the inhibition result is “Active”.

Turning to `CNCCNc1c2c(c(NCCNC(=N)N)c3sccc13)C(=O)c1ccccc1C2=O`, the thermal shift (ΔTm) in the data set filed under Homo sapiens [1] came out at 5.1 °C. Besides, the Kb in the data set filed under Homo sapiens [2] stood at 1.5 ×10⁶ /M; in the data set listed under Homo sapiens [3] it was 4 ×10⁶ /M; in the data set filed under Homo sapiens [4] it was 2.5 ×10⁶ /M. For the same compound, the IC50 in [5] was found to be 1.1 µM; in [6] it was 0.05 µM; in the data set on L1210 [7] it was 16 µM; in the data set with CCRF-CEM it was 11 µM.

In the case of `CNCCNc1c2c(c(NCCNC)c3sccc13)C(=O)c1ccccc1C2=O.Cl`, in the data set filed under Homo sapiens [1], the ΔTm was 4.3 °C. Also, the Kb in the data set listed under Homo sapiens [2] came to 1.1 ×10⁶ /M; in the data set listed under Homo sapiens [3], 11 ×10⁶ /M; in the data set filed under Homo sapiens [4], 1.6 ×10⁶ /M. Also, the results for the IC50 (in data set [5]; in [6]; in the data set on L1210 [7]) were 0.7 µM, 0.5 µM and 0.9 µM, respectively. Besides, in data set [8], the inhibition entry is “Active”. Also, the Drug uptake entry with L1210 [9] and in the data set with L1210 [10] was “Active” throughout.

With `Nc1c2c(c(N)c3sccc13)C(=O)c1ccccc1C2=O`, the ΔTm in the data set listed under Homo sapiens [1] worked out at 0.1 °C. In addition, the values for the Kb in the data set listed under Homo sapiens [2] and in the data set filed under Homo sapiens [3] were 0.01 ×10⁶ /M and 1.3 ×10⁶ /M, respectively. The IC50 in data set [5] was 10 µM; in data set [6], 33 µM; in the data set on L1210 [7], more than 250 µM; in the data set with CCRF-CEM, more than 250 µM.

For `CNCCNc1c2c(c(NCCNC(=N)N)c3ccsc13)C(=O)c1ccccc1C2=O`, in the data set filed under Homo sapiens [1], the ΔTm was 5.4 °C. Besides, the Kb in the data set filed under Homo sapiens [2] is 1.6 ×10⁶ /M; in the data set listed under Homo sapiens [3] it was 5.5 ×10⁶ /M; in the data set filed under Homo sapiens [4], 4.9 ×10⁶ /M. Also, the IC50 stood at 0.6 µM in data set [5], 0.3 µM in data set [6], 23 µM with L1210 [7] and 6 µM in the data set with CCRF-CEM. Further, the inhibition result in data set [8] is “Active”.
